Experimental data taken from publication PMC3683042, “Solution Structure and Peptide Binding of the PTB Domain from the AIDA1 Postsynaptic Signaling Scaffolding Protein” (PLoS ONE, 2013).
Values belong to the molecule of their own block, whether it stands above or below them. Residues, ends and D or L forms follow the SMILES beside them. *: point of attachment. FITC = O=C1OC2(c3ccc(O)cc3Oc3cc(O)ccc32)c2ccc(NC(=S)*)cc21

What was measured:
[1] = test system: AIDA1 PTB domain; assay: Binding of APP peptides to the AIDA1 PTB domain; design: species or system human
Excerpt: A gene fragment encoding the PTB domain (aa. 1043–1195) of human AIDA1b was PCR amplified with NdeI and EcoRI restriction sites and was subsequently inserted into pET28a (Novagen). The expressed protein contained an amino terminal 6xHis tag and intervening thrombin site. Other PTB domain fragments that lacked either the N-terminal 6xHis tag or the entire affinity tag along with 16 additional unstructured residues were also as […] as the fragment chosen for this study. To align the PTB domain described in this study with numerous AIDA1 isoforms, S1 in the PTB domain structure corresponds to S1045 in AIDA1b, the longest isoform. A one-liter fermentation in a minimal medium containing 1 g of ^15NH4Cl and 4 g of ^13C-glucose was sufficient to produce 5–10 mg of purified protein. Purification was achieved by Nickel-NTA affinity chromatography (Qiagen) and gel filtration chromatography on a S-100 HR 16/60 size exclusion column (GE Biosciences). Final buffer conditions were 20 mM Na-phosphate, pH 7.8, 0.15 M NaCl, 0.05% (w/v) NaN3. […] A 6xHis tagged PTB domain variant containing all five substitutions (PTB5M) was produced by DNA2.0 (Menlo Park, CA) by direct gene synthesis in the expression vector, pJExpress401 (T5 promoter plus kanamycin resistance). A 6xHis-tagged, APP-peptide ([…]) fused to the amino terminus of the AIDA1 PTB5M mutant with an intervening thrombin site was also synthesized by DNA2.0 in pJExpress401.
(§1) Fluorescein isothiocyanate (FITC) labeled peptides spanning portions of APP were produced and purified by CanPeptide (Montreal, QC) for fluorescence anisotropy based binding studies at 25°C using an Agilent Eclipse spectrophotometer equipped with a manual polarizer accessory. Buffer conditions were similar to those used for NMR spectroscopy. […] Anisotropy was calculated from the relationship (Iparallel–GIperp)/(Iparallel[…]) and normalized with the blank experiment. The equilibrium dissociation constant (KD) was calculated by direct fitting the titration curves with a standard two-state relationship using proFit 6.2 (Quantsoft).

[2] = target: T1, AIDA1 PTB domain, Y70A mutant (PTBY70A) (Homo sapiens, UniProt Q7Z6G8, Y1111A); assay: Fluorescence anisotropy binding of FITC-labeled APP peptides to PTBY70A; settings: FITC-labeled peptide, 25°C, buffer similar to NMR (20 mM Na-phosphate, pH 7.8, 0.15 M NaCl), two-state fit, n = 4 (APP-32), n = 2 (APP-17)
T1 construct: A gene fragment encoding the PTB domain (aa. 1043–1195) of human AIDA1b; 6xHis tag with thrombin site (N); made in house; host or cells: pET28a vector
T1 sequence (Q7Z6G8 1040-1192 Y1111A): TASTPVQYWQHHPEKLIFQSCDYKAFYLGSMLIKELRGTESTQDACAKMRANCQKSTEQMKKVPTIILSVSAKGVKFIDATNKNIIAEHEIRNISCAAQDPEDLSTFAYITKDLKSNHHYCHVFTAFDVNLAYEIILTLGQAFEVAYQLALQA
Excerpt: (§2) A gene fragment encoding the PTB domain (aa. 1043–1195) of human AIDA1b was PCR amplified with NdeI and EcoRI restriction sites and was subsequently inserted into pET28a (Novagen). The expressed protein contained an amino terminal 6xHis tag and intervening thrombin site. Other PTB domain fragments that lacked either the N-terminal 6xHis tag or the entire affinity tag along with 16 additional unstructured residues were also as […] as the fragment chosen for this study. To align the PTB domain described in this study with numerous AIDA1 isoforms, S1 in the PTB domain structure corresponds to S1045 in AIDA1b, the longest isoform. A one-liter fermentation in a minimal medium containing 1 g of ^15NH4Cl and 4 g of ^13C-glucose was sufficient to produce 5–10 mg of purified protein. […]
as §1, with “accessory.” for “accessory. Buffer conditions were similar to those used for NMR spectroscopy.”

[3] = target: T2, AIDA1 PTB domain, PTB5M mutant (Homo sapiens, UniProt Q7Z6G8, F1057A/F1065A/Y1047A/Y1111A/Y1172A); assay: Fluorescence anisotropy binding of FITC-labeled APP peptides to PTB5M; settings: FITC-labeled peptide, 25°C, buffer similar to NMR (20 mM Na-phosphate, pH 7.8, 0.15 M NaCl), two-state fit, n = 4 (APP-32), n = 2 (APP-17), n = 1 (APP-17{pY})
T2 construct: A gene fragment encoding the PTB domain (aa. 1043–1195) of human AIDA1b; 6xHis; made in house; host or cells: gene synthesised by DNA2.0 in pJExpress401
T2 sequence (Q7Z6G8 1043-1195 Y1047A/F1057A/F1065A/Y1111A/Y1172A): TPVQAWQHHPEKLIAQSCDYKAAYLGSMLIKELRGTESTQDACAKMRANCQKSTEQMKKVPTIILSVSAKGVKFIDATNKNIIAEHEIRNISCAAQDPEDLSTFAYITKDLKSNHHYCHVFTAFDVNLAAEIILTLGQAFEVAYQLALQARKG
Excerpt: as §2
as §1, with “accessory.” for “accessory. Buffer conditions were similar to those used for NMR spectroscopy.”

[4] = target: Fe65 PTB2 domain; settings: Discussion; read-out: dissociation constant, Fe65 (given jointly for X11/Fe65); cited from earlier work
Excerpt: One threonine (T668) in APP located in this extended region is susceptible to phosphorylation and acts as a switch that repartitions the cis and trans states of the adjacent proline (P669) that, in turn, affects the ability of Fe65 to engage its ligand. […] This difference in affinity may be advantageous for AIDA1 to participate in signaling contexts beyond APP. From a peptide array study, we determined that the consensus sequence is less stringent NxxY versus NPxY for others in the same Dab-like class of PTB domains. Thus, at the neuronal synapse, AIDA1 could serve as a versatile collator and ...

[5] = target: X11 PTB domain; settings: Discussion; read-out: dissociation constant, X11 (given jointly for X11/Fe65); cited from earlier work
Excerpt: This difference in affinity may be advantageous for AIDA1 to participate in signaling contexts beyond APP. From a peptide array study, we determined that the consensus sequence is less stringent NxxY versus NPxY for others in the same Dab-like class of PTB domains. Thus, at the neuronal synapse, AIDA1 could serve as a versatile collator and ...

binding affinity to the AIDA1 PTB domain, long versus short APP peptide ([1]; fluorescence anisotropy titration, in words): no differences in binding affinity
Molecule: CSCC[C@H](NC(=O)[C@H](CCC(N)=O)NC(=O)[C@H](CCC(=O)O)NC(=O)[C@H](Cc1ccccc1)NC(=O)[C@H](Cc1ccccc1)NC(=O)[C@H](CCCCN)NC(=O)[C@H](Cc1ccc(O)cc1)NC(=O)[C@@H](NC(=O)[C@@H]1CCCN1C(=O)[C@H](CC(N)=O)NC(=O)[C@H](CCC(=O)O)NC(=O)[C@H](Cc1ccc(O)cc1)NC(=O)CNC(=O)[C@H](CC(N)=O)NC(=O)[C@H](CCC(N)=O)NC(=O)CNC(=O)CNC(=S)Nc1ccc2c(c1)C(=O)OC21c2ccc(O)cc2Oc2cc(O)ccc21)[C@@H](C)O)C(=O)N[C@@H](CCC(N)=O)C(=O)N[C@@H](CC(N)=O)C(=O)O [APP-17] ({FITC}-GGQNGYENPTYKFFEQMQN-OH; C-terminus assumed)

Kd [2]: 13.3 ± 1.5 µM
Kd [3]: 14.8 ± 1 µM
Molecule: CSCC[C@H](NC(=O)[C@H](CCC(N)=O)NC(=O)[C@H](CCC(=O)O)NC(=O)[C@H](Cc1ccccc1)NC(=O)[C@H](Cc1ccccc1)NC(=O)[C@H](CCCCN)NC(=O)[C@H](Cc1ccc(O)cc1)NC(=O)[C@@H](NC(=O)[C@@H]1CCCN1C(=O)[C@H](CC(N)=O)NC(=O)[C@H](CCC(=O)O)NC(=O)[C@H](Cc1ccc(O)cc1)NC(=O)CNC(=O)[C@H](CC(N)=O)NC(=O)[C@H](CCC(N)=O)NC(=O)[C@H](CCC(N)=O)NC(=O)[C@H](CCSC)NC(=O)[C@H](CCCCN)NC(=O)[C@H](CO)NC(=O)[C@H](CC(C)C)NC(=O)[C@H](Cc1c[nH]cn1)NC(=O)[C@H](CCCNC(=N)N)NC(=O)[C@H](CCC(=O)O)NC(=O)[C@H](CCC(=O)O)NC(=O)[C@@H]1CCCN1C(=O)[C@@H](NC(=O)[C@@H](NC(=O)[C@H](C)NC(=O)[C@H](C)NC(=O)[C@H](CC(=O)O)NC(=O)CNC(=O)CN)C(C)C)[C@@H](C)O)[C@@H](C)O)C(=O)N[C@@H](CCC(N)=O)C(=O)N[C@@H](CC(N)=O)C(=O)O [APP-32] (H-GGDAAVTPEERHLSKMQQNGYENPTYKFFEQMQN-OH)

Kd ([1]; approximate value of text/abstract): ~10 µM
affinity of the AIDA1 PTB domain (in words) ([1]; relative to similar APP binding proteins such as X11/Fe65): moderate
Molecule: amyloid protein precursor (APP): amyloid protein precursor (APP)
Kd [4]: < 1 µM
Kd [5]: < 1 µM
